Reference: patent US20260183396A1, “CXCR3 OVEREXPRESSION IN CAR-NK CELLS PRIMES MIGRATION/HOMING INTO THE TUMOR MICROENVIRONMENT” (DANA-FARBER CANCER INSTITUTE, INC., priority 2022, published 2026)

Experiments:
MPM PDOTS = experiment: PDOTS live/dead quantification ex vivo; format: cell-based
Experimental: Patient-derived organotypic tumor spheroids (PDOTS). […] Briefly, fresh tumor specimens were minced in a 15 mL falcon tube in prewarmed to 37° C. full media (DMEM from Thermo Fisher Scientific+10% FBS)+100 U/mL collagenase type IV (Life Technologies) and 50 μg/mL dNase I (Roche) for approximately 20 minutes using sterile scissors and pipetting. Dissociated material was strained over 100-μm filter and 40-μm filters to generate S1 (>100 μm), S2 (40-100 μm), and S3 (<40 μm) spheroid fractions, which were subsequently maintained in ultralow-attachment (ULA) tissue culture plates (Corning). […] S2 fractions were used for ex vivo culture by resuspending them in type I rat tail collagen (Corning) at a concentration of 2.8 mg/mL prior to loading into the center gel region of the 3-D microfluidic culture device (AIM Biotech) and incubation for 40 minutes at 37° C. in humidity chambers to allow for polymerization. […]
PDOTS immunofluorescence and live/dead quantification. […] Following incubation with the dyes (20 minutes at room temperature in the dark for AO/PI or 45 minutes for Hoechst 33342/PI), images were captured using 4× objective of a Nikon Eclipse 80i fluorescence microscope equipped with automated motorized stage (Proscan), Z-stack (Prior), and Zyla 5.5 sCMOS camera (Andor). […] Live and dead cell quantitation was performed by measuring total cell area of each dye.

NK cells = experiment: Autophagy staining (CYTO-ID); format: cell-based, human; details: NK cells following ADU-S100 treatment
Experimental: Autophagy Staining. Autophagy was assessed by vacuole staining to identify autophagolysosomes using the CYTO-ID Autophagy detection kit 2.0 (Enzo ENZ-51031-0050) according to manufacturer's instructions. Briefly, 5×10^5 isolated primary NK cells or TILs were incubated in T-cell growth media (TCGM) with 500 U/mL IL-2, which was refreshed every time the media was changed to ensure proper growth and selection. CLQ from the kit (Enzo 51005-CLQ) was used starting at the recommended initial dose of 10 μM compared with DMSO control. […] The media was collected, and flow cytometry was performed after staining following manufacturer's instructions with CYTO-ID Green Detection Reagent 2.

CXCL10 = CXCL10 release from MPM PDOTS/explants; format: cell-based, human; details: MPM PDOTS, specific samples
Experimental: Patient-derived organotypic tumor spheroids (PDOTS). PDOTS were generated as previously described (Jenkins et al., Cancer Discov. 8:196-215 (2018); Aref et al., Lab Chip 18:3129-3143 (2018)). Briefly, fresh tumor specimens were minced in a 15 mL falcon tube in prewarmed to 37° C. full media (DMEM from Thermo Fisher Scientific+10% FBS)+100 U/mL collagenase type IV (Life Technologies) and 50 μg/mL dNase I (Roche) for approximately 20 minutes using sterile scissors and pipetting. Dissociated material was strained over 100-μm filter and 40-μm filters to generate S1 (>100 μm), S2 (40-100 μm), and S3 (<40 μm) spheroid fractions, which were subsequently maintained in ultralow-attachment (ULA) tissue culture plates (Corning). […] S2 fractions were used for ex vivo culture by resuspending them in type I rat tail collagen (Corning) at a concentration of 2.8 mg/mL prior to loading into the center gel region of the 3-D microfluidic culture device (AIM Biotech) and incubation for 40 minutes at 37° C. in humidity chambers to allow for polymerization. Collagen hydrogels containing PDOTS were hydrated with media with or without indicated treatments. TAK-676 was provided by Takeda and diluted in dH20. Recombinant human interferon beta (100 ng/ml; R&D Systems) was used as a positive control downstream of STING for STAT1 pathway activation. […]

IRF3 = IRF3 immunofluorescence in PDOTS; format: cell-based, human; details: PDOTS following treatment
Experimental: PDOTS immunofluorescence and live/dead quantification. Dual labeling was performed by loading microfluidic devices with Nexcelom ViaStain acridine orange/propidium iodide (AO/PI) Staining Solution (Nexcelom, CS2-0106) or 10 μg/mL solution of Hoechst 33342 (Thermo Fisher Scientific) and 1 μg/mL solution of PI (Thermo Fisher Scientific). Following incubation with the dyes (20 minutes at room temperature in the dark for AO/PI or 45 minutes for Hoechst 33342/PI), images were captured using 4× objective of a Nikon Eclipse 80i fluorescence microscope equipped with automated motorized stage (Proscan), Z-stack (Prior), and Zyla 5.5 sCMOS camera (Andor). Image capture and analysis were performed using NIS-Elements AR software package. Live and dead cell quantitation was performed by measuring total cell area of each dye. For additional immunofluorescence studies, PDOTS were washed with PBS and blocked with FcR blocking reagent (Miltenyi) for 30 minutes at room temperature. Directly conjugated antibodies CD326 EpCAM-AlexaFluor647 (clone 9C4), CD45-AlexaFluor647 (HI30) (BioLegend), and mesothelin-PE (clone REA1057, Miltenyi) were diluted 1:50 in 10 μg/mL solution of Hoechst 33342 (Thermo Fisher Scientific) in PBS and loaded into microfluidic devices for 1-hour incubation at room temperature in the dark. Spheroids were washed twice with PBS with 0.1% Tween20 followed by PBS. […]

T-cells = experiment: Immune cell toxicity assays, T-cells; format: cell-based, human
Experimental: Immune Cell Toxicity Assays. […] Following treatment, samples were stained with anti-CD45, anti-CD3, anti-CD4, anti-CD8, and anti-CD56 antibodies (Table 1), as well as Zombie Green live/dead (Biolegend 423111) and analyzed by flow cytometry as described above. Data were analyzed using FlowJo software version 10.5.3. As an orthogonal measure of viability, CellTiter-Glo was performed on primary T-cells and NK cells.
CellTiter-Glo luminescent cell viability assay. Cell viability was assessed using the CellTiter-Glo Luminescent Cell Viability assay (Promega, G7571) according to manufacturer's instructions. […] All conditions were tested in triplicate and plates were read on a Tecan Infinite Mplex Microplate Reader.

For `Nc1ncnc2c1ncn2[C@@H]1O[C@@H]2COP(=O)([S-])O[C@@H]3[C@H](O)[C@@H](COP([O-])(=S)O[C@H]2[C@H]1O)O[C@H]3n1cnc2c(N)ncnc21.[Na+].[Na+]` (stereo partly shown) [ADU-S100], the “specimens approximating clinical criteria for response with >30% decrease in cell area, p<0.05” value (MPM PDOTS; 35 MPM patient specimens ex vivo) was 7 specimens, the “primary NK cell response in MPM PDOTS” value (MPM PDOTS; combined treatment with primary NK cells, cells from 2 out of 3 donors) was “significantly enhanced” and the autophagic flux (NK cells) was “elevated”. The CXCL10 release (CXCL10) was “induced CXCL10 release”, the IRF3 localisation (IRF3) was “nuclear translocation” and the “cytotoxicity to T-cells by flow cytometry” value (T-cells; MPM tumor explants, increased from 24 to 72 hours) was “cytotoxic”. The “cytotoxicity in T-cells purified from peripheral blood” value (T-cells; with or without BCMA CAR) was “dose-dependent cytotoxicity”.
